According to paper PMC3542197, “Downregulation of the Mitochondrial Phosphatase PTPMT1 Is Sufficient to Promote Cancer Cell Death” (PLoS ONE, 2013):
pIC50: −log10 of the molar value. Where a name gives a salt, the structure may show the parent alone.

Molecular target: T1, PTPMT1 (Protein Tyrosine Phosphatase localized to the Mitochondrion 1) (Homo sapiens, UniProt Q8WUK0)
T1 construct: human PTPMT1 open reading frame cloned into pGEX-KG, purified using glutathione-conjugated sepharose
T1 sequence (Q8WUK0 1-201): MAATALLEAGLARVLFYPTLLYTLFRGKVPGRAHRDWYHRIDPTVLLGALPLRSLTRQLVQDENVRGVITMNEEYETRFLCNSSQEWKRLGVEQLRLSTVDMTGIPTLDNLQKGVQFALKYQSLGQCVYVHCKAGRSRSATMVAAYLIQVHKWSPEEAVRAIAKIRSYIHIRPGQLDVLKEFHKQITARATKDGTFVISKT
Assay: in vitro phosphatase assay with recombinant enzyme, OMFP substrate, fluorescence readout
Type: biochemical

Structure (SMILES): CCCCC(CC)CNC(=N)NC(=N)NCCCCCCNC(=N)NC(=N)NCC(CC)CCCC (stereo not shown) [alexidine dihydrochloride]
- pIC50: 5.60
